Values quoted from earlier work as cited in patent publication US12605354B2, “Azelaic acid esters in the treatment or prevention of dyslipidemia and associated conditions” (NEW FRONTIER LABS, LLC, priority 2020, dated 2026).
Read-outs that look alike come from different tables or passages of the source.

Columns and labels:
[1] = system: 16 subjects with Type II diabetes; details: cited from earlier work
[2] = 15-year study [49]; cited from earlier work
[3] = system: statin-naïve individuals; details: 1 year (T2D), reference 52, cited from earlier work; for LDL/HDL, decrease: statin-naïve individuals
[4] = cited from earlier work; for Hypoglycemia: reference 51
[5] = system: 4750 prediabetic subjects; details: cited from earlier work
[6] = 28-day study in 16 subjects with Type II diabetes [47]
[7] = 8 weeks (T2D risk), reference 48
[8] = meta-analysis, trials of at least 8 weeks, compared to placebo or no treatment [48]

Question: Which “Cholesterol/HDL, decrease” value ([1]; 4 weeks (T2D), reference 47) does the source give for `CN(C)C(=N)N=C(N)N` [Metformin, metformin] here?
Answer: 9.2% decrease

Question: And the fasting glucose [1, 6]?
Answer: reduced fasting glucose

Question: And the insulin levels [1, 6]?
Answer: no effect on insulin levels

Question: And the “reduction of the incidence of diabetes compared to placebo” value [2]?
Answer: 17%

Question: And the “LDL/HDL, decrease” value [3]?
Answer: 11.7% decrease

Question: And the “LDL/HDL, decrease” value ([3]; listed as metformin)?
Answer: 11.7%

Question: And the “HDL, increase” value [3]?
Answer: 5% increase

Question: And the “LDL, decrease” value [3]?
Answer: 5.6% decrease

Question: And the “patients who cannot tolerate metformin at all” value [4, 53]?
Answer: 5%

Question: And the “users with severe gastrointestinal side effects” value [4, 53]?
Answer: 1 of 4

Question: What about the Hypoglycemia ([4]; multiple studies) of the same molecule?
Answer: infrequent event

Question: And the Hypoglycemia ([4]; multiple studies, listed as metformin)?
Answer: Neither metformin nor DEA administration as presented herein induced hypoglycemia

Question: What about the Side effects ([4]; multiple studies, reference 53) of the same molecule?
Answer: severe gastrointestinal effects

Question: And the “Fasting insulin, decrease” value [5, 7]?
Answer: 14.4% decrease

Question: What about the “Fasting plasma glucose, decrease” value [5, 7] of the same molecule?
Answer: 4.5% decrease

Question: And the “change of LDL” value [5, 8]?
Answer: −5.6%

Question: And the “change of fasting glucose” value [5, 8]?
Answer: −4.5%

Question: What about the “change of fasting insulin” value [5, 8] of the same molecule?
Answer: −14.4%

Question: What about the “increase of HDL” value [5, 8] of the same molecule?
Answer: 5.0%
